Measured values taken from the supplement of paper PMC11061612.

Columns and labels:
Test in all cases: Bliss excess, mean over the matrix (fraction); higher = more synergy
[1] = tested on: MDA-MB-361 (Breast Carcinoma)
How it was run: (§1)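 After 24 hours at 37°C and 5% CO2 in 1536-well plates, cells in DMEM/F12 or RPMI plus 10% FBS received two-drug dose matrices for 72 hours. Viability came from CellTiter-Glo 2.0 luminescence and was scaled as inhibition, anchored at 0 by vehicle wells and at 1 by blank wells. Combination Emax is taken as the second-highest inhibition in the matrix, and Bliss excess as the observed combination effect less EA + EB − EA·EB, with EA and EB the single-agent effects.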

[2] = tested on: SK-ES-1 (Ewing's Sarcoma)
How it was run: as §1

[3] = tested on: TE-15 (Esophageal Squamous Cell Carcinoma)
How it was run: as §1

[4] = tested on: CAL-148 (Breast Carcinoma)
How it was run: as §1

[5] = tested on: NCI-H2085 (Non-Small Cell Lung Carcinoma)
How it was run: as §1

[6] = tested on: LS-180 (Colorectal Carcinoma)
How it was run: as §1

[7] = tested on: UM-UC-3 (Bladder Carcinoma)
How it was run: as §1

ES4 (Ewing's Sarcoma) = tested on: ES4 (Ewing's Sarcoma)
How it was run: as §1

[8] = tested on: NCI-H82 (Small Cell Lung Carcinoma)
How it was run: as §1

42-MG-BA (Glioblastoma) = tested on: 42-MG-BA (Glioblastoma)
How it was run: as §1

[9] = tested on: HCC1806 (Breast Carcinoma)
How it was run: as §1

[10] = tested on: HuP-T4 (Pancreatic Carcinoma)
How it was run: as §1

Structure (SMILES) | Bliss excess [1] | Bliss excess [2] | Bliss excess [3] | Bliss excess [4] | Bliss excess [5] | Bliss excess [6] | Bliss excess [7] | Bliss excess (ES4 (Ewing's Sarcoma)) | Bliss excess [8] | Bliss excess (42-MG-BA (Glioblastoma)) | Bliss excess [9] | Bliss excess [10]
CN(CCO)CC[C@H](CSc1ccccc1)Nc1ccc(S(=O)(=O)NC(=O)c2ccc(N3CCC([C@@H](O)c4ccccc4-c4ccc(Cl)cc4)CC3)cc2)cc1S(=O)(=O)C(F)(F)F [AZD4320] + C1CN(CCC1(C(=O)N[C@@H](CCO)C2=CC=C(C=C2)Cl)N)C3=NC=NC4=C3C=CN4 [Capivasertib] (first compound max 1 µM, 7x7, partner max 3 µM) | -0.0442 | 0.0827 | -0.042 | 0.0346 | -0.0401 | -0.0389 | -0.0228 | -0.0333 | 0.0177 | -0.0479 | -0.0078 | -0.0353
CN(CCO)CC[C@H](CSc1ccccc1)Nc1ccc(S(=O)(=O)NC(=O)c2ccc(N3CCC([C@@H](O)c4ccccc4-c4ccc(Cl)cc4)CC3)cc2)cc1S(=O)(=O)C(F)(F)F [AZD4320] + C=CCn1c(=O)c2cnc(Nc3ccc(N4CCN(C)CC4)cc3)nc2n1-c1cccc(C(C)(C)O)n1 [AZD1775] (first compound max 1 µM, partner max 1 µM) | -0.034 | 0.093 | -0.0137 | -0.0033 | -0.0212 | 0.0046 | -0.0064 | 0.12 | 0.0113 | -0.027 | 0.0043 | -0.0368
CN(CCO)CC[C@H](CSc1ccccc1)Nc1ccc(S(=O)(=O)NC(=O)c2ccc(N3CCC([C@@H](O)c4ccccc4-c4ccc(Cl)cc4)CC3)cc2)cc1S(=O)(=O)C(F)(F)F [AZD4320] + CCN(CCO)CCCOc1ccc2c(Nc3cc(CC(=O)Nc4cccc(F)c4)[nH]n3)ncnc2c1 [AZD2811] (first compound max 1 µM, 7x7, partner max 1 µM) | 0.122 | 0.0156 | -0.0393 | -0.0027 | -0.0145 | -0.0044 | 0.0325 | 0.0157 | 0.0891 | 0.15 | -0.0127 | -0.0427
CN(CCO)CC[C@H](CSc1ccccc1)Nc1ccc(S(=O)(=O)NC(=O)c2ccc(N3CCC([C@@H](O)c4ccccc4-c4ccc(Cl)cc4)CC3)cc2)cc1S(=O)(=O)C(F)(F)F [AZD4320] + CN(C)CCCOc1ccc(-c2ccc3ncc4c(c3c2)n(C2CCOCC2)c(=O)n4C)cn1 [AZD0156] (first compound max 1 µM, 7x7, partner max 1 µM) | -0.0589 | 0.047 | -0.0455 | 0.0183 | -0.0242 | -0.0209 | -0.0219 | 0.0223 | 0.012 | -0.0225 | 0.0142 | -0.0268
CN(CCO)CC[C@H](CSc1ccccc1)Nc1ccc(S(=O)(=O)NC(=O)c2ccc(N3CCC([C@@H](O)c4ccccc4-c4ccc(Cl)cc4)CC3)cc2)cc1S(=O)(=O)C(F)(F)F [AZD4320] + C[C@@H]1COCCN1C2=NC(=NC(=C2)C3(CC3)[S@](=N)(=O)C)C4=C5C=CNC5=NC=C4 [AZD6738] (first compound max 1 µM, 7x7, partner max 10 µM) | -0.0402 | 0.0339 | -0.041 | -0.0231 | -0.0912 | -0.0306 | 0.0368 | 0.0351 | -0.0251 | 0.0154 | 0.0208 | 0.0013
CN(CCO)CC[C@H](CSc1ccccc1)Nc1ccc(S(=O)(=O)NC(=O)c2ccc(N3CCC([C@@H](O)c4ccccc4-c4ccc(Cl)cc4)CC3)cc2)cc1S(=O)(=O)C(F)(F)F [AZD4320] + C[C@@H](Nc1cc(F)cc(F)c1)c1cc(C(=O)N(C)C)cc2c(=O)cc(N3CCOCC3)oc12 [AZD8186] (first compound max 1 µM, 7x7, partner max 3 µM) | 0.0094 | 0.0521 | -0.0335 | -0.0054 | -0.0231 | -0.0535 | 0.0327 | -0.0507 | 0.0359 | 0.0453 | 0.0033 | 0.0664
COc1nnc2ccc(N3CCC(c4ccc(OCCN5CCN(C)C(=O)[C@H]5C)cc4)CC3)nn12 [AZD5153] + CN(CC[C@H](CSC1=CC=CC=C1)NC2=C(C=C(C=C2)S(=O)(=O)NC(=O)C3=CC=C(C=C3)N4CCC(CC4)[C@H](C5=CC=CC=C5C6=CC=C(C=C6)Cl)O)S(=O)(=O)C(F)(F)F)CCO [AZD4320] (first compound max 1 µM, 7x7, partner max 1 µM) | 0.0967 | 0.0211 | – | – | – | – | – | -0.0136 | – | 0.101 | 0.0257 | 0.0267
CC(=O)c1c(C)c2cnc(Nc3ccc(N4CCNCC4)cn3)nc2n(C2CCCC2)c1=O [Palbociclib] + CN(CC[C@H](CSC1=CC=CC=C1)NC2=C(C=C(C=C2)S(=O)(=O)NC(=O)C3=CC=C(C=C3)N4CCC(CC4)[C@H](C5=CC=CC=C5C6=CC=C(C=C6)Cl)O)S(=O)(=O)C(F)(F)F)CCO [AZD4320] (first compound max 10 µM, 7x7, partner max 1 µM) | -0.0078 | 0.0334 | – | – | – | – | – | -0.113 | – | -0.061 | -0.0398 | -0.0026
CCc1c2c(nc3ccc(O)cc13)-c1cc3c(c(=O)n1C2)COC(=O)[C@]3(O)CC [SN-38] + O=C(c1cc(Cc2n[nH]c(=O)c3ccccc23)ccc1F)N1CCN(C(=O)C2CC2)CC1 [Olaparib] (first compound max 0.3 µM, 7x7, partner max 10 µM) | – | 0.0611 | 0.0207 | 0.0981 | -0.0181 | 0.064 | 0.0493 | -0.0648 | -0.0065 | 0.0749 | 0.0498 | 0.0913
C[C@@H](c1ccc2nccn2c1)n1nnc2ncc(-c3cnn(C)c3)nc21 [Savolitinib] + CN(CC[C@H](CSC1=CC=CC=C1)NC2=C(C=C(C=C2)S(=O)(=O)NC(=O)C3=CC=C(C=C3)N4CCC(CC4)[C@H](C5=CC=CC=C5C6=CC=C(C=C6)Cl)O)S(=O)(=O)C(F)(F)F)CCO [AZD4320] (first compound max 1 µM, 7x7, partner max 1 µM) | -0.0425 | -0.0692 | – | – | – | – | – | -0.0622 | – | -0.0553 | -0.0031 | -0.0544
